Results on 2 compounds are retold here after patent US20260355199A1, “COMPOSITIONS AND METHODS FOR TREATING OR PREVENTING NONALCOHOLIC STEATOHEPATITIS (NASH), ANOREXIA, DEPRESSION, ENDOMETRIOSIS, AND OTHER DISEASES OR DISORDERS” (priority 2022, published 2026).

Assay [1] deals with TET2. Description: TET2 expression in the ARC of mice. The note with it: 2.5 mg/kg i.p., two days. The assay is classed as in vivo, mouse. On the procedure:
To test whether Bobcat339 affects TET3 protein expression in AgRP neurons, Agrp-IRES-Cre::LSL-Cas9-GFP mice with GFP expression specifically in AgRP neurons were intraperitoneally injected with vehicle or Bobcat339 at 2.5 mg/kg, followed by isolation of ARCs under fed conditions (9:00-11:00) two days later. This dose was chosen based on the dose response studies. TET2 expression was widespread but was negligible in AgRP neurons.
Bobcat339 powder (Sigma-Aldrich, SML2611) was freshly dissolved in DMSO (vehicle) at a concentration of 50 mg/mL and filtered through a 0.22 micron. It was further diluted with 1×PBS to a final concentration of 0.5 mg/mL before injections. Mice were injected intraperitoneally with Bobcat339 at 1 mg/kg, 2.5 mg/kg, or 4 mg/kg.
The immunofluorescence for brain slices was conducted using previous methods (18). In brief, postfixed sections were cut into 40-μm-thick sections, followed by 5 times washing. […] The sections were coverslipped and scoped using a Keyence BZ-X700 fluorescence microscope. The fluorescence signals from GFP in AgRP neurons were detected without immunostaining.

Assay [2] concerns activity-based anorexia (ABA) mice. The note with it: temporal (3 days); cited from earlier work.
Assay [3] deals with AGRP, NPY and SLC32A1. The experiment in a line: AGRP, NPY and SLC32A1 mRNA in SH-SY5Y cells. The assay is classed as cell-based, human. The note with it: 10 μM, 48 h. An excerpt:
Mouse GT1-7 hypothalamic neuronal cell line (Sigma-Aldrich, SCC116) and human SH-SY5Y neuroblastoma cell line (Sigma Aldrich, 94030304) were purchased and cultured according to the manufacturers' instructions. Purified Ad-TET3 adenovirus (Ad-FLAG.h-TET3, ADV-225322, Vector Biolabs) expressing human TET3 from a CMV promoter and Ad-GFP control adenovirus (1060, Vector Biolabs) were purchased.
For Bobcat339 treatment (FIG. 15A and FIG. 15B), GT1-7 cells grown in 24-well plates at 2×10^5 cells/well were incubated with vehicle or Bobcat339 at a final concentration of 10 μM for 6 h, followed by RNA and protein extractions. […] Protein and RNA were isolated 48 h later and analyzed.
Total RNAs were extracted from neuronal cells or homogenized hypothalamic arcuate nucleus tissue samples using PureLink RNA Mini Kit (Ambion, 12183025). cDNA was synthesized using PrimeScript RT Reagent Kit in a 20 μl reaction containing 0.5-1 μg of total RNA. Real-time quantitative PCR was performed in a 15 μl reaction containing 0.5-1 μl of cDNA using SsoAdvanced Universal SYBR Green Supermix in a Bio-Rad iCycler. […]

The subject of assay [4] is Agrp promoter. Description: hMeDIP-qPCR (5hmC) at the Agrp promoter in mouse ARC. It is filed as in vivo. The note with it: leptin- vs. saline-treated. The protocol:
To assess leptin effects on suppression of hunger-induced appetite, female Cas9+ mice injected with AAV or AAV-sgTet3 bilaterally into the ARC were fasted overnight for 22 h. On the second day, mouse leptin (L3772-1MG, Sigma Aldrich) was administrated at 5 mg/kg intraperitoneally at 10:00 and pre-weighed food was placed in the cage and monitored for the following 24 h. For ChIP studies, Cas9+ mice injected with AAV or AAVsgTet3 bilaterally into the ARC were fasted overnight for 22 h. On the second day, saline or leptin (5 mg/kg) was administrated intraperitoneally at 10:00. Two hours later, ARCs were isolated for ChIP-qPCR analysis. To examine leptin-induced protein-protein interactions, Cas9+ mice were fasted overnight for 22 h. […]
The experiments were carried out using the EpiQuik hMeDIP Kit (P-1038-48, Epigentek) according to the manufacturer's instructions. […] Sheared DNA fragments (ranged in size from 200-600 bps as assessed by agarose gel electrophoresis) were immunoprecipitated using the 5hmC rabbit polyclonal antibody from the kit. qPCR was performed in a 25 μl reaction containing 2.5 μl of the eluted DNA using iTAC SYBGreen in a Bio-Rad iCycler. The relative enrichments (after normalization against control IgG) of the indicated DNA regions were calculated using the Percent Input Method according to the manufacturer's instructions.
For orientation: In qPCR the cycle at which signal appears reflects the starting amount.

As for `Nc1nc(=O)n(-c2cccc(-c3ccccc3)c2)cc1Cl` [Bobcat339, 4-Amino-1-[1,1′-biphenyl]-3-yl-5-chloro-2(1H)-pyrimidinone], the TET2 expression entry in assay [1] is recorded as “did not significantly affect TET2 expression”. Moreover, the food intake result in assay [2] is “increase food intake”. The “AGRP, NPY and SLC32A1 mRNA levels” value in assay [3] is given as “significant increases in Agrp/NPY mRNAs”.

Turning to “leptin: adipose hormone; mouse leptin L3772-1MG or human leptin L4146-1MG, Sigma Aldrich”, in assay [4], the “5hmC in the Agrp promoter” value is “an increase in 5hmC in the Agrp promoter”.
